Data as given in paper PMC3967213, “Cyclic Marinopyrrole Derivatives as Disruptors of Mcl-1 and Bcl-xL Binding to Bim” (Marine Drugs, 2014).
pIC50: −log10 of the molar value. “Also recorded” adds a separate entry of the source. Like-named read-outs stand apart in the source and are kept apart here.

Columns and labels:
[1] = molecular target: GST-Mcl-1 / biotinylated Bim BH3 peptide (Homo sapiens, UniProt Q07820); experiment: ELISA, disruption of Mcl-1 binding to Bim; conditions: for fold potency relative to 1 against Mcl-1/Bim: compared with 1
Chain of GST-Mcl-1 / biotinylated Bim BH3 peptide (Q07820 whole entry): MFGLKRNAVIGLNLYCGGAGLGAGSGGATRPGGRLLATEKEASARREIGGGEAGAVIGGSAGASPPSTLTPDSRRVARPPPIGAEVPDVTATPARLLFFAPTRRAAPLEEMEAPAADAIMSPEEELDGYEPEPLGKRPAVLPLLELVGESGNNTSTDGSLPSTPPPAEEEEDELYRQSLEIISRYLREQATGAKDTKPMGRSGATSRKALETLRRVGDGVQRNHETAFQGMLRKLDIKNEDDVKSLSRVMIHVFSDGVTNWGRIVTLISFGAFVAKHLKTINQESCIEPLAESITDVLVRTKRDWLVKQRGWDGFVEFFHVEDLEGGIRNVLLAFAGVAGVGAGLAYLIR
Method: (§1) ELISAs were performed using a similar procedure as previously described. Briefly, 40 nM of biotinylated Bim BH3 peptide (Biomatik, Wilmington, DE, USA) in SuperBlock blocking buffer (Thermo Scientific Pierce, Rockford, IL, USA) was incubated in high-binding capacity streptavidin-coated plates (Thermo Scientific Pierce, Rockford, IL, USA) for 2 h. Compounds were diluted in 120 µL of PBS containing 10 nM of GST-Mcl-1 or GST-Bcl-xL in 1.5-mL tubes for 15 min. Wells were washed with wash buffer (PBS containing 0.05% Tween-20) and then 100 µL of the compound/GST-protein mixture was transferred to the wells. The plates were incubated for 2 h, and then, the wells were washed with wash buffer. HRP-conjugated anti-GST antibody (Bethyl Laboratories, Montgomery, TX, USA) was diluted 1:2000 in SuperBlock, and 100 µL were transferred to each well. The plate was incubated for 1 h, and then, the wells were washed with wash buffer followed by PBS. One hundred microliters of SureBlue TMB Microwell Peroxidase Substrate (VWR International, Radnor, PA, USA) was added to each well, and the plates were developed for 5–10 min. One hundred microliters of 1 N HCl was added to each well to stop the reaction, and the absorbance was read at 450 nm using a µQuant plate reader (Bio-Tek Instruments, Winooski, VT, USA).

[2] = system: Mcl-1, Bim and caspase 3 in MDA-MB-468 cells; experiment: Western blotting after treatment of intact human breast cancer cells; assay type: cell-based; conditions: 10 μM for 16 h
[3] = molecular target: GST-Bcl-xL / biotinylated Bim BH3 peptide (Homo sapiens, UniProt Q07817); experiment: ELISA, disruption of Bcl-xL binding to Bim; conditions: for pIC50: 10 nM GST-Bcl-xL, 40 nM biotinylated Bim BH3 peptide, read-out: IC50 against Bcl-xL/Bim binding; for fold potency relative to 1 against Bcl-xL/Bim: compared with 1
Chain of GST-Bcl-xL / biotinylated Bim BH3 peptide (Q07817 whole entry): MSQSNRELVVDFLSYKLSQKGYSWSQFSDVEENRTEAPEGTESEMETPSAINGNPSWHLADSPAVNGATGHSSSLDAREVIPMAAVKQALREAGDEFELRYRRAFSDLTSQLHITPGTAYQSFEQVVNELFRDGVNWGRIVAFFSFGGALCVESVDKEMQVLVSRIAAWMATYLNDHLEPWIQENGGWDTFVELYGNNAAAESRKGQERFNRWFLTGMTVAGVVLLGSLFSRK
Method: as §1

Row | SMILES | activity against Mcl-1/Bim (in words) ([1]; ELISA) | cleavage of caspase 3 [2] | levels of Mcl-1 and Bim [2] | other results
1 | COC(=O)c1ccc(C(=O)c2[nH]c(Cl)c(Cl)c2-n2c(C(=O)c3ccc(C(=O)OC)cc3O)cc(Cl)c2Cl)c(O)c1 [Compound 4a, dimethyl-4,4′-(4,4′,5,5′-tetrachloro-1′H-[1,3′-bipyrrole]-2,2′-dicarbonyl)bis(3-hydroxybenzoate)] | showed activity | cleavage of caspase 3 | significant decrease | –
2 | CCOP(=O)(OCC)c1ccc(C(=O)c2cc(Cl)c3n2-c2c([nH]c(Cl)c2Cl)C(=O)c2ccc(P(=O)(OCC)OCC)cc2O3)c(O)c1 [Compound 5, 3-Hydroxy-4-(2,3,7-trichloro-13-oxo-10-(diethylphosphonyl)-1,13-dihydrobenzo[g]dipyrrolo[2,1-b:3′,2′-d][1,3]oxazocine-5-carbonyl)diethyl phosphonate] | – | – | – | pIC50 ([1]; ELISA, 10 nM GST-Mcl-1, 40 nM biotinylated Bim BH3 peptide, read-out: IC50 to disrupt the binding of Mcl-1 to Bim): < 4.00; pIC50 [3]: < 4.00
3 | O=C(c1ccc(P(=O)(O)O)cc1O)c1[nH]c(Cl)c(Cl)c1-n1c(C(=O)c2ccc(P(=O)(O)O)cc2O)cc(Cl)c1Cl [Compound 8a, ((4,4′,5,5′-Tetrachloro-1′H-[1,3′-bipyrrole]-2,2′-dicarbonyl)bis(3-hydroxy-4,1-phenylene))diphosphonic acid] | slightly less potent than 1; also recorded: less active | little effect | little effect | activity against Bcl-xL/Bim (in words) [3]: less active
4 | O=C1c2ccc(OS(=O)(=O)C(F)(F)F)cc2Oc2c(Cl)cc(C(=O)c3ccc(OS(=O)(=O)C(F)(F)F)cc3O)n2-c2c1[nH]c(Cl)c2Cl [Compound 3, 3-Hydroxy-4-(2,3,7-trichloro-13-oxo-10-(((trifluoromethyl)sulfonyl)oxy)-1,13 dihydrobenzo[g]di-pyrrolo[2,1-b:3′,2′-d][1,3]oxazocine-5-carbonyl)phenyl trifluoromethanesulfonate] | – | – | – | fold potency relative to 1 against Mcl-1/Bim ([1]; ELISA): six; fold potency relative to 1 against Bcl-xL/Bim [3]: seven-fold higher potency
5 | O=C(c1ccccc1O)c1[nH]c(Cl)c(Cl)c1-n1c(C(=O)c2ccccc2O)cc(Cl)c1Cl (racemic) [Compound 1, (±)-marinopyrrole A, reference compound] | – | cleave caspase 3 | able to decrease | pIC50 [1]: 5.05
6 | O=C(O)c1ccc(C(=O)c2[nH]c(Cl)c(Cl)c2-n2c(C(=O)c3ccc(C(=O)O)cc3O)cc(Cl)c2Cl)c(O)c1 [Compound 7a, 4,4′-(4,4′,5,5′-Tetrachloro-1′H-[1,3′-bipyrrole]-2,2′-dicarbonyl)bis(3-hydroxybenzoic acid)] | lower activity than 1; also recorded: less active | little caspase 3 cleavage | did not decrease | melting point: 190.5 to 192 °C; activity against Bcl-xL/Bim (in words) [3]: little activity; also recorded: less active
7 | CCOP(=O)(OCC)c1ccc(C(=O)c2[nH]c(Cl)c(Cl)c2-n2c(C(=O)c3ccc(P(=O)(OCC)OCC)cc3O)cc(Cl)c2Cl)c(O)c1 [Compound 5a, tetraethyl((4,4′,5,5′-tetrachloro-1′H-[1,3′-bipyrrole]-2,2′-dicarbonyl)bis(3-hydroxy-4,1-phenylene))bis(phosphonate)] | showed activity | little effect | little effect | pIC50 [3]: < 4.00
8 | COC(=O)c1ccc(C(=O)c2cc(Cl)c3n2-c2c([nH]c(Cl)c2Cl)C(=O)c2ccc(C(=O)OC)cc2O3)c(O)c1 [Compound 4, Methyl-2,3,7-trichloro-5-(2-hydroxy-4-(methoxycarbonyl)benzoyl)-13-oxo-1,13-dihydrobenzo[g]-dipyrrolo[2,1-b:3′,2′-d][1,3]oxazocine-10-carboxylate] | – | – | – | fold potency relative to 1 against Mcl-1/Bim ([1]; ELISA): two-fold more potent; fold potency relative to 1 against Bcl-xL/Bim [3]: seven-fold more potent
